Active and inactive are the calls of the source. How the calls were made is not given here.
System: CCRIS mutagenicity, Ames/micronucleus/aberration tests
Test: CCRIS mutagenicity studies
[1] = Test System: AMES SALMONELLA TYPHIMURIUM, Strain/Indicator: TA98, Metabolic Activation: NONE, Method: PREINCUBATION
[2] = Test System: AMES SALMONELLA TYPHIMURIUM, Strain/Indicator: TA100, Metabolic Activation: NONE, Method: PREINCUBATION
[3] = Test System: AMES SALMONELLA TYPHIMURIUM, Strain/Indicator: TA98, Metabolic Activation: NONE, Method: STANDARD PLATE
[4] = Test System: AMES SALMONELLA TYPHIMURIUM, Strain/Indicator: TA100, Metabolic Activation: NONE, Method: STANDARD PLATE
[5] = Test System: AMES SALMONELLA TYPHIMURIUM, Strain/Indicator: TA100, Metabolic Activation: RAT, LIVER, S-9, AROCLOR 1254, Method: STANDARD PLATE
[6] = Test System: AMES SALMONELLA TYPHIMURIUM, Strain/Indicator: TA1535, Metabolic Activation: NONE, Method: PREINCUBATION
[7] = Test System: AMES SALMONELLA TYPHIMURIUM, Strain/Indicator: TA1537, Metabolic Activation: NONE, Method: PREINCUBATION

Measured: mutagenic call

CCN(CC(O)c1ccc([N+]#N)c([O-])c1)N=O (stereo not given)
active: [1] active; positive | Test System: AMES SALMONELLA TYPHIMURIUM, Strain/Indicator: TA98, Metabolic Activation: RAT LIVER S-9, PCB, Method: PREINCUBATION active; positive | [2] active; positive | Test System: AMES SALMONELLA TYPHIMURIUM, Strain/Indicator: TA100, Metabolic Activation: RAT LIVER S-9, PCB, Method: PREINCUBATION active; positive

Nc1ccc2c(c1)Cc1cc(N)ccc1-2
active: [3] active; positive | Test System: AMES SALMONELLA TYPHIMURIUM, Strain/Indicator: TA98, Metabolic Activation: RAT, LIVER, S-9, AROCLOR 1254, Method: STANDARD PLATE active; positive | [5] active; positive | Test System: AMES SALMONELLA TYPHIMURIUM, Strain/Indicator: TA1538, Metabolic Activation: NONE, Method: STANDARD PLATE active; positive | Test System: AMES SALMONELLA TYPHIMURIUM, Strain/Indicator: TA1538, Metabolic Activation: RAT, LIVER, S-9, AROCLOR 1254, Method: STANDARD PLATE active; positive
inactive: [4] inactive; negative

O=C1NCNC(=O)N1
active: Test System: AMES SALMONELLA TYPHIMURIUM, Strain/Indicator: TA98, Metabolic Activation: MAIZE SEEDLING, S-14, Method: PREINCUBATION active; positive | Test System: AMES SALMONELLA TYPHIMURIUM, Strain/Indicator: TA98, Metabolic Activation: MOUSE, LIVER, S-9, Method: PREINCUBATION active; positive | Test System: AMES SALMONELLA TYPHIMURIUM, Strain/Indicator: TA100, Metabolic Activation: MAIZE SEEDLING, S-14, Method: PREINCUBATION active; positive
inactive: [1] inactive; negative | Test System: AMES SALMONELLA TYPHIMURIUM, Strain/Indicator: TA100, Metabolic Activation: MOUSE, LIVER, S-9, Method: PREINCUBATION inactive; negative | [2] inactive; negative | [6] inactive; negative | [7] inactive; negative | Test System: AMES SALMONELLA TYPHIMURIUM, Strain/Indicator: TA1538, Metabolic Activation: NONE, Method: PREINCUBATION inactive; negative

COc1cc2c(c3oc4cccc(OC(C)=O)c4c(=O)c13)C1C=COC1O2 (stereo not given)
inactive: Test System: AMES SALMONELLA TYPHIMURIUM, Strain/Indicator: TA98, Metabolic Activation: RAT, LIVER, S-9, PHENOBARBITAL, Method: STANDARD PLATE inactive; negative
active: Test System: AMES SALMONELLA TYPHIMURIUM, Strain/Indicator: TA100, Metabolic Activation: RAT, LIVER, S-9, PHENOBARBITAL, Method: STANDARD PLATE active; positive

Cc1cc2nc3c(=O)[nH]c(=O)nc-3n(C[C@H](O)[C@H](O)[C@H](O)CO)c2cc1C
inactive: End Point: IN VIVO MICRONUCLEUS, Test System: BONE MARROW POLYCHROMATIC ERYTHROCYTES, Species: MOUSE, Strain/Sex: DDY/MALE, Route: IP inactive; negative | Test System: AMES SALMONELLA TYPHIMURIUM, Strain/Indicator: TA97A, Metabolic Activation: NONE, Method: PREINCUBATION inactive; negative | Test System: AMES SALMONELLA TYPHIMURIUM, Strain/Indicator: TA97A, Metabolic Activation: RAT, CECAL CELL-FREE EXTRACT, Method: PREINCUBATION inactive; negative | Test System: AMES SALMONELLA TYPHIMURIUM, Strain/Indicator: TA97A, Metabolic Activation: RAT, LIVER, S9, AROCLOR 1254, Method: PREINCUBATION inactive; negative | [1] inactive; negative | Test System: AMES SALMONELLA TYPHIMURIUM, Strain/Indicator: TA98, Metabolic Activation: RAT, CECAL CELL-FREE EXTRACT, Method: PREINCUBATION inactive; negative | Test System: AMES SALMONELLA TYPHIMURIUM, Strain/Indicator: TA98, Metabolic Activation: RAT, LIVER, S9, AROCLOR 1254, Method: PREINCUBATION inactive; negative | [2] inactive; negative | Test System: AMES SALMONELLA TYPHIMURIUM, Strain/Indicator: TA100, Metabolic Activation: RAT, CECAL CELL-FREE EXTRACT, Method: PREINCUBATION inactive; negative | Test System: AMES SALMONELLA TYPHIMURIUM, Strain/Indicator: TA100, Metabolic Activation: RAT, LIVER, S9, AROCLOR 1254, Method: PREINCUBATION inactive; negative | Test System: AMES SALMONELLA TYPHIMURIUM, Strain/Indicator: TA102, Metabolic Activation: RAT, LIVER, S9, AROCLOR 1254, Method: PREINCUBATION inactive; negative

CNNC
inactive: Test System: AMES SALMONELLA TYPHIMURIUM, Strain/Indicator: TA102, Metabolic Activation: NONE, Method: PREINCUBATION inactive; negative | Test System: AMES SALMONELLA TYPHIMURIUM, Strain/Indicator: TA102, Metabolic Activation: NONE, Method: STANDARD PLATE inactive; negative | [6] inactive; negative | Test System: AMES SALMONELLA TYPHIMURIUM, Strain/Indicator: TA1535, Metabolic Activation: NONE, Method: STANDARD PLATE inactive; negative | Test System: AMES SALMONELLA TYPHIMURIUM, Strain/Indicator: TA1535, Metabolic Activation: RAT, LIVER, S-9, AROCLOR 1254, Method: PREINCUBATION inactive; negative | [7] inactive; negative | Test System: AMES SALMONELLA TYPHIMURIUM, Strain/Indicator: TA1537, Metabolic Activation: RAT, LIVER, S-9, AROCLOR 1254, Method: PREINCUBATION inactive; negative
active: Test System: AMES SALMONELLA TYPHIMURIUM, Strain/Indicator: TA2638, Metabolic Activation: NONE, Method: STANDARD PLATE active; positive | Test System: AMES SALMONELLA TYPHIMURIUM, Strain/Indicator: YG7108, Metabolic Activation: NONE, Method: STANDARD PLATE active; positive | Test System: E. COLI, Strain/Indicator: WP2 (PKM101), Metabolic Activation: NONE, Method: STANDARD PLATE active; positive | Test System: E. COLI, Strain/Indicator: WP2 UVRA (PKM101), Metabolic Activation: NONE, Method: STANDARD PLATE active; positive

NC(=O)/C(=C\c1ccc([N+](=O)[O-])o1)c1ccco1
active: [3] active; positive | Test System: AMES SALMONELLA TYPHIMURIUM, Strain/Indicator: TA98, Metabolic Activation: RAT, LIVER, S-9, KC500 OR PHENOBARBITAL, Method: LIQUID SUSPENSION active; positive | [2] active; positive | [4] active; positive | Test System: AMES SALMONELLA TYPHIMURIUM, Strain/Indicator: TA100, Metabolic Activation: RAT, LIVER, S-9, KC500 OR PHENOBARBITAL, Method: LIQUID SUSPENSION active; positive | Test System: AMES SALMONELLA TYPHIMURIUM, Strain/Indicator: YG7112, Metabolic Activation: NONE, Method: PREINCUBATION active; positive | Test System: AMES SALMONELLA TYPHIMURIUM, Strain/Indicator: YG7113, Metabolic Activation: NONE, Method: PREINCUBATION active; positive | Test System: AMES SALMONELLA TYPHIMURIUM, Strain/Indicator: YG7119, Metabolic Activation: NONE, Method: PREINCUBATION active; positive | Test System: Ames Salmonella typhimurium, Strain/Indicator: TA100, Metabolic Activation: None, Method: Preincubation active; positive | Test System: Ames Salmonella typhimurium, Strain/Indicator: TA1975P, Metabolic Activation: None, Method: Preincubation active; positive (at higher doses) | Test System: CHINESE HAMSTER V-79, Strain/Indicator: V-79/8-AZAGUANINE, Metabolic Activation: NONE, Method: STANDARD PLATE active; positive | Test System: E. COLI, Strain/Indicator: WP2, Metabolic Activation: NONE, Method: PREINCUBATION active; positive | Test System: E. COLI, Strain/Indicator: WP2 UVRA, Metabolic Activation: NONE, Method: SPOT active; positive | Test System: MOUSE LYMPHOMA, Strain/Indicator: L5178Y (TK+/TK-), Metabolic Activation: NONE, Method: SUSPENSION/PLATE active; positive | Test System: MOUSE LYMPHOMA, Strain/Indicator: L5178Y (TK+/TK-), Metabolic Activation: RAT, LIVER, S-9, AROCLOR 1254, Method: SUSPENSION/PLATE active; positive

CCCCN(CCCC)[N+](=O)[O-]
active: Test System: E. COLI, Strain/Indicator: WP2 (HCR-), Metabolic Activation: RAT, LIVER, MICROSOMES, PHENOBARBITAL active; positive

Cc1ccc2nc3c(ccc4ccccc43)c(CO)c2c1
active: [5] active; positive
